Reference: patent US12728111B2, “Electrophilic compounds and electrophilic prodrugs for treating aneurysm” (University of Pittsburgh—Of the Commonwealth System of …, priority 2020, dated 2026)

What was measured:
RAW 264.7 cells = assay: Boyden chamber transwell migration assay; assay type: cell-based, murine; settings: in the presence of Ang II; 2.5 μM, 12 hours
Experimental: HUVECs were seeded in the lower chambers of the Transwells (#CLS3464, Sigma-Aldrich) and cultured up to 80% confluence before treatment with or without AngII (100 nM) for 6 hours in OptiMEM I reduced serum medium (#31985-070, Gibco). RAW 264.7 cells starved with OptiMEM I overnight were seeded (2×10^5 per well) in the upper chambers of the transwells and treated with vehicle (ethanol), OA (2.5 μM) or NO2—OA (2.5 μM) for additional 12 hours. Cells on the upper chamber were then removed by gently scraping with a cotton swab, and the membranes were fixed in 4% PFA for 15 min and stained with 0.1% crystal violet for 15 min at room temperature. Images were acquired by AMG Evos XI Core Imaging System. Quantification of the positively stained area was performed using Image J v1.52s.

oxLDL-treated BMDMs = assay: Cytokine ELISA in medium of oxLDL-treated BMDMs; assay type: cell-based, mouse; settings: 2.5 μM, 8 h oxLDL, vs control
Experimental: FIG. 3. NO2—OA prevents oxLDL-induced NFκB activation and pro-inflammatory cytokine production. Primary BMDMs were pretreated with vehicle, OA (2.5 μM) or NO2—OA (2.5 μM) for 1 h, followed by treatment of oxLDL (50 to 100 μg/ml) for the indicated times. (A, B) Nuclear (A) and cytoplasmic protein (B) fractions were isolated 1 h after oxLDL treatment and subjected to western blot with antibodies against p65, lamin a/c (nuclear marker) and GAPDH (cytosolic marker). Representative western blot images of three independent experiments are shown. (C) Quantification of the p65 nuclear to cytoplasmic ratio by image studio (normalized by the internal control, n=3). (D-F) Following 8 h of oxLDL treatment, levels of IL6, MCP1 and TNFα in the cell medium were measured by ELISA (n=4). (G) Real-time PCR quantification of gene expression levels of IL1b and Mmp9 in total mRNA extracted from the BMDMs. (C) Ordinary one-way ANOVA followed by Tukey's test was performed. As of (D-F), the basal level contains several non-detectable values, so ordinary one-way ANOVA followed by correction of FDR were performed for the oxLDL-treated groups only. Ordinary one-way ANOVA followed by Tukey's test was performed for (G). Data presented as mean±SEM. A p<0.05 for both the main test and post hoc test was considered statistically significant.
Murine RAW 264.7 cell line, 293T/17 cell line and Primary Umbilical Vein Endothelial Cells (PCS-100-010, HUVECs) were purchased from ATCC (Manassas, VA) and cultured in DMEM (Gibco) with 10% FBS (Thermo Fisher Scientific) or M199 (Gibco) supplemented with 20% FBS for HUVECs. BMDMs isolated from 12 to 16-week-old C57BL/6 wild type mice were cultured in bone marrow macrophage differentiation media. The differentiation medium was prepared by adding L-cell conditioned media (30%), non-essential amino acids (#11140-050, Gibco), sodium pyruvate (1 mM, #11360-070, Gibco), 2-Mercaptoethanol (55 μM) and 10% FBS into Iscove's Modified Dulbecco's Medium (IMDM, Gibco).

[1] = test system: AngII/PCSK9-induced AAA mouse model; assay: Ang II plus hypercholesterolemia (AngII/PCSK9) induced AAA mouse model; assay type: in vivo
Experimental: FIG. 1. Characterization of the protective effect of NO2—OA (10-nitro-octadec-9-enoic acid) in the Ang II plus hypercholesterolemia-induced AAA mouse model. (A) Schematic illustration of the in vivo experimental design. Ten week old male C57BL/6 mice were IP injected with AAV carrying PCSK9 gain-of-function (D377Y) mutation and fed a western diet. After two weeks, each mouse was implanted with a pump delivering AngII at a rate of 1,500 ng/kg/min plus an additional pump containing either PEG-400 (vehicle), OA or NO2—OA with a delivery rate of 5 mg/kg/day (n=25 to 30 per group) and carried to the endpoint for another four weeks. Mice with ruptured aorta within the first week or with total plasma cholesterol less than 250 mg/dl were excluded from the study. (B) Representative morphological differences of the abdominal aorta. (C) AAA incidence calculated by using 1.2 mm as the cutoff diameter indicated by the dotted line in (D). (D) Average maximal diameter of the suprarenal aorta region. (E) Representative H&E and VVG staining of the paraffin-embedded suprarenal aortic cross-sections (5 μm). (F) Grade of elastic fiber degradation in the aorta (1 to 4). A 2×3 Fisher's exact test followed by posthoc test was performed for (C). For (D) and (F), the Kruskal-Wallis test followed by Dunn's multiple comparisons was performed. Continuous data are presented as mean±SEM. Scale bar=20 μm for (E). A p<0.05 for both the main test and post hoc test was considered statistically significant.
Ten weeks old male C57BL/6J mice were purchased from The Jackson Laboratory. The murine AAA model induced by AngII/PCSK9 gain-of-function mutation is well-established. After acclimation for 1 week, mice were fed a western diet (TD.88137, Envigo) and intraperitoneally injected with 2×1011 genomic copies of AAV-PCSK9.D377Y (AAV serotype 8, Penn Vector Core). Two weeks later, each mouse was subcutaneously implanted with two osmotic pumps (Model #2004, Alzet). One was loaded with AngII (#H-1706, Bachem), releasing at a rate of 1,500ng/kg/min, while the other one was loaded with PEG-400, OA or NO2—OA at a delivery rate of 5 mg/kg/day for OA or NO2—OA. After 4-weeks infusion, mice were euthanized and the maximal outer diameter of the suprarenal aorta was assessed with a digital caliper by a third person blinded to the treatment. Suprarenal aortas with a maximal diameter ≥50% larger than standard size (≥1.2 mm) were considered as abdominal aortic aneurysms. Mice dead within the first week of pump implantation or with a serum total cholesterol level less than 250 mg/dL were excluded from the study. All animal procedures were performed following the protocols approved by the Institutional Animal Care & Use Committee (IACUC) at the University of Michigan.
H&E and Verhoeff Van Gieson staining of paraffin or frozen sections of mouse suprarenal abdominal aorta were performed by the In-Vivo Animal Core at the University of Michigan. Elastin degradation grade was calculated as we previously reported.

[2] = test system: LPS-induced macrophage activation; assay: PGE2-mediated protection against LPS-induced macrophage activation; assay type: cell-based

SMILES: CCCCCCCCC(=CCCCCCCCC(=O)O)[N+](=O)[O-] [NO2—OA, 10-nitro-octadec-9-enoic acid]
- endothelial-dependent macrophage migration (RAW 264.7 cells): significantly inhibits
- IL6 level in oxLDL-treated cell medium (oxLDL-treated BMDMs): significant decrease
- MCP1 level in oxLDL-treated cell medium (oxLDL-treated BMDMs): marginally significant reduction
- TNFα levels in oxLDL-treated cell medium (oxLDL-treated BMDMs): no significant difference
- AAA incidence ([1]; 5 mg/kg/day subcutaneous infusion, after 4 weeks, cutoff diameter 1.2 mm): 28.6%
- maximal diameter of the suprarenal aorta region ([1]; 5 mg/kg/day subcutaneous infusion, after 4 weeks, mean±SEM): 1.16±0.09 mm
- ECM degradation / elastin fiber degradation ([1]; 5 mg/kg/day, 4 weeks, VVG staining, grade 1 to 4): significantly reduced
- PGE2-mediated protective effect against LPS-induced macrophage activation (expression of Tnf, Il6, Ccl4) [2]: does not suppress
